Key:
[1] = test system: HepG2 hepatocellular carcinoma cells; assay: Time-lapse microscopy count of multi-daughter divisions (DNV frequency), HepG2; format: cell-based, human; settings: wogonin 50 μM, 5-FU 20 μM
Method: (§1) To investigate DNVs, the human HepG2 hepatocellular carcinoma, HeLa cervical adenocarcinoma, and A549 lung adenocarcinoma cell lines, as well as the non-cancerous RPE1 line of hTRET-immortalized retina epithelial cells, were obtained from the American Type Culture Collection (ATCC, Manassas, Va., USA) and cultivated in Dulbecco's Modified Eagle Medium (DMEM) supplemented with 10% fetal bovine serum (Gemini Bio-Products, Sacramento. Calif.) under a humidified atmosphere of 5% C02 at 37° C. After 24 hours, the old medium was replaced by acidic DMEM growth medium buffered by 15 mM 2-(N-morpholino)-ethanesulfonic acid.HCl (MES) at pH 6.4, neutral DMEM growth medium buffered by 15 mM 3-(N-morpholino)propanesulfonic acid.HCl (MOPS) at pH 7.4, alkaline growth medium buffered by 15 mM tris(hydroxymethyl)aminomethane.HCl (Tris) at pH 8.4, or neutral DMEM growth medium containing wogonin (50 μM) or 5-FU (20 μM). Using phase contrast microscopy, time-lapse photographs were recorded at different positions of the wells at 15-minute intervals for 24 hours using the Nikon ECLIPSE Ti Live Cell Imaging Observatory, enabling the count of P1 through P8 patterns at the end of Stage 2 of the DNV process (FIG. 1). All the images were photographed at 100× magnification. Altemately, using fluorescence microscopy, the cells were seeded into 12 well plates at 1×10^3 per well and stained with Hoechst 33342 ([…], Thermofisher) for 30 minutes in an incubator at 37° C. After 30 minutes, culture medium was replaced by various treatment media and placed under the Nikon ECLIPSE Ti Live Cell Imaging Observatory for 24 hours. For the HeLa, HepG2 and A549 cells, the various treatments were also extended to 5 days. Because the RPE1 cells yielded no DNVs after 24 hours of drug treatment, its treatment periods were not extended beyond 24 hours. All the cells were manually traced and quantified using the ImageJ software. DNV frequencies were estimated by dividing the total number of multi-daughter ([…]) divisions by the total number of cell divisions. Fluorescence staining and time-lapse microscopy were employed to differentiate between the bi-, tri-, tetra- and penta-daughter cell divisions, and to estimate the percentages of the P1 through P8 patterns in the final daughter cells generated by each of the DNV events. GraphPad Prism 5.0 software was employed for statistical analysis, and the results were presented as the mean. Significance was determined using the Student t-test (two-tailed, unpaired/unequal variances).

[2] = test system: A549 lung adenocarcinoma cells; assay: Time-lapse microscopy count of multi-daughter divisions (DNV frequency), A549; format: cell-based, human; settings: wogonin 50 μM, 5-FU 20 μM
Method: as §1

O=c1[nH]cc(F)c(=O)[nH]1 [5-FU, 5-flurouracil]
Bi-daughter divisions, % of total divisions ([1]; HepG2, 24 hours): 99.1% | Bi-daughter divisions, number ([1]; HepG2, 24 hours): 1995 | Sum of Multi daughter Divisions, % of total mitotic divisions ([1]; HepG2, 24 hours): 0.94% | Sum of Multi daughter Divisions, number ([1]; HepG2, 24 hours): 19 | Tetra-daughter divisions, % of total divisions ([1]; HepG2, 24 hours): 0.25% | Tetra-daughter divisions, number ([1]; HepG2, 24 hours): 5 | Total number of observed divisions ([1]; HepG2, 24 hours): 2014 (100) | Tri-daughter divisions, % of total divisions ([1]; HepG2, 24 hours): 0.69% | Tri-daughter divisions, number ([1]; HepG2, 24 hours): 14 | ≥Tetra-daughter divisions, number ([1]; HepG2, 24 hours): 0 | Bi-daughter divisions, % of total divisions ([1]; HepG2, 5 days): 90.6% | Bi-daughter divisions, number ([1]; HepG2, 5 days): 270 | Sum of Multi-daughter Divisions, % of total mitotic divisions ([1]; HepG2, 5 days): 9.30% | Sum of Multi-daughter Divisions, number ([1]; HepG2, 5 days): 28 | Tetra-daughter divisions, % of total divisions ([1]; HepG2, 5 days): 2.6% | Tetra-daughter divisions, number ([1]; HepG2, 5 days): 8 | Total Divisions ([1]; HepG2, 5 days): 298 (100) | Tri-daughter divisions, % of total divisions ([1]; HepG2, 5 days): 5.7% | Tri-daughter divisions, number ([1]; HepG2, 5 days): 17 | ≥Tetra-daughter divisions, % of total divisions ([1]; HepG2, 5 days): 1.0% | ≥Tetra-daughter divisions, number ([1]; HepG2, 5 days): 3 | Bi-daughter divisions, % of total divisions ([2]; A549, 24 hours): 99.9% | Bi-daughter divisions, number ([2]; A549, 24 hours): 2205 | Sum of Multi-daughter Divisions, % of total mitotic divisions ([2]; A549, 24 hours): 0.13% | Sum of Multi-daughter Divisions, number ([2]; A549, 24 hours): 3 | Total number of observed divisions ([2]; A549, 24 hours): 2208 (100) | Tri-daughter divisions, % of total divisions ([2]; A549, 24 hours): 0.13% | Tri-daughter divisions, number ([2]; A549, 24 hours): 3 | Bi-daughter divisions, % of total divisions ([2]; A549, 5 days): 97% | Bi-daughter divisions, number ([2]; A549, 5 days): 259 | Sum of Multi-daughter Divisions, % of total mitotic divisions ([2]; A549, 5 days): 3.0% | Sum of Multi-daughter Divisions, number ([2]; A549, 5 days): 8 | Tetra-daughter divisions, number ([2]; A549, 5 days): 0 | Total Divisions ([2]; A549, 5 days): 267 (100) | Tri-daughter divisions, % of total divisions ([2]; A549, 5 days): 3% | Tri-daughter divisions, number ([2]; A549, 5 days): 8 | ≥Tetra-daughter divisions, number ([2]; A549, 5 days): 0

COc1c(O)cc(O)c2c(=O)cc(-c3ccccc3)oc12 [Wogonin, wogonin]
Bi-daughter divisions, % of total divisions ([1]; HepG2, 24 hours): 97.0% | Bi-daughter divisions, number ([1]; HepG2, 24 hours): 2482 | Sum of Multi daughter Divisions, % of total mitotic divisions ([1]; HepG2, 24 hours): 2.97% | Sum of Multi daughter Divisions, number ([1]; HepG2, 24 hours): 76 | Tetra-daughter divisions, % of total divisions ([1]; HepG2, 24 hours): 0.70% | Tetra-daughter divisions, number ([1]; HepG2, 24 hours): 18 | Total number of observed divisions ([1]; HepG2, 24 hours): 2558 (100) | Tri-daughter divisions, % of total divisions ([1]; HepG2, 24 hours): 2.19% | Tri-daughter divisions, number ([1]; HepG2, 24 hours): 56 | ≥Tetra-daughter divisions, % of total divisions ([1]; HepG2, 24 hours): 0.08% | ≥Tetra-daughter divisions, number ([1]; HepG2, 24 hours): 2 | Bi-daughter divisions, % of total divisions ([1]; HepG2, 5 days): 83.9% | Bi-daughter divisions, number ([1]; HepG2, 5 days): 262 | Sum of Multi-daughter Divisions, % of total mitotic divisions ([1]; HepG2, 5 days): 16.0% | Sum of Multi-daughter Divisions, number ([1]; HepG2, 5 days): 50 | Tetra-daughter divisions, % of total divisions ([1]; HepG2, 5 days): 3.8% | Tetra-daughter divisions, number ([1]; HepG2, 5 days): 12 | Total Divisions ([1]; HepG2, 5 days): 312 (100) | Tri-daughter divisions, % of total divisions ([1]; HepG2, 5 days): 16.0% | Tri-daughter divisions, number ([1]; HepG2, 5 days): 50 | ≥Tetra-daughter divisions, % of total divisions ([1]; HepG2, 5 days): 2.5% | ≥Tetra-daughter divisions, number ([1]; HepG2, 5 days): 8 | Sum of Multi-daughter Divisions, % of total mitotic divisions ([1]; HepG2, 5 days, listed as wogonin): 18.0% | Bi-daughter divisions, % of total divisions ([2]; A549, 24 hours): 99.6% | Bi-daughter divisions, number ([2]; A549, 24 hours): 1986 | Sum of Multi-daughter Divisions, % of total mitotic divisions ([2]; A549, 24 hours): 0.3% | Sum of Multi-daughter Divisions, number ([2]; A549, 24 hours): 6 | Total number of observed divisions ([2]; A549, 24 hours): 1992 (100) | Tri-daughter divisions, % of total divisions ([2]; A549, 24 hours): 0.30% | Tri-daughter divisions, number ([2]; A549, 24 hours): 6 | Sum of Multi-daughter Divisions, % of total mitotic divisions ([2]; A549, 24 hours, listed as wogonin): 0.30% | Bi-daughter divisions, % of total divisions ([2]; A549, 5 days): 94.6% | Bi-daughter divisions, number ([2]; A549, 5 days): 230 | Sum of Multi-daughter Divisions, % of total mitotic divisions ([2]; A549, 5 days): 5.3% | Sum of Multi-daughter Divisions, number ([2]; A549, 5 days): 13 | Tetra-daughter divisions, % of total divisions ([2]; A549, 5 days): 2.4% | Tetra-daughter divisions, number ([2]; A549, 5 days): 6 | Total Divisions ([2]; A549, 5 days): 243 (100) | Tri-daughter divisions, % of total divisions ([2]; A549, 5 days): 2.8% | Tri-daughter divisions, number ([2]; A549, 5 days): 7 | ≥Tetra-daughter divisions, number ([2]; A549, 5 days): 0

From US11952593B2, “Detection and treatment of daughter number variations in cancer cells” (PharmacoGenetics Limited, priority 2020, dated 2024)
